The record followed here is US9556201B2, “Bicyclic pyridines and analogs as sirtuin modulators” (GLAXOSMITHKLINE LLC, priority 2009, dated 2017).

SMILES strings stand for the structures.

The target of this experiment is T1, SIRT1 (Homo sapiens, UniProt Q96EB6).
T1 sequence (Q96EB6 1-747): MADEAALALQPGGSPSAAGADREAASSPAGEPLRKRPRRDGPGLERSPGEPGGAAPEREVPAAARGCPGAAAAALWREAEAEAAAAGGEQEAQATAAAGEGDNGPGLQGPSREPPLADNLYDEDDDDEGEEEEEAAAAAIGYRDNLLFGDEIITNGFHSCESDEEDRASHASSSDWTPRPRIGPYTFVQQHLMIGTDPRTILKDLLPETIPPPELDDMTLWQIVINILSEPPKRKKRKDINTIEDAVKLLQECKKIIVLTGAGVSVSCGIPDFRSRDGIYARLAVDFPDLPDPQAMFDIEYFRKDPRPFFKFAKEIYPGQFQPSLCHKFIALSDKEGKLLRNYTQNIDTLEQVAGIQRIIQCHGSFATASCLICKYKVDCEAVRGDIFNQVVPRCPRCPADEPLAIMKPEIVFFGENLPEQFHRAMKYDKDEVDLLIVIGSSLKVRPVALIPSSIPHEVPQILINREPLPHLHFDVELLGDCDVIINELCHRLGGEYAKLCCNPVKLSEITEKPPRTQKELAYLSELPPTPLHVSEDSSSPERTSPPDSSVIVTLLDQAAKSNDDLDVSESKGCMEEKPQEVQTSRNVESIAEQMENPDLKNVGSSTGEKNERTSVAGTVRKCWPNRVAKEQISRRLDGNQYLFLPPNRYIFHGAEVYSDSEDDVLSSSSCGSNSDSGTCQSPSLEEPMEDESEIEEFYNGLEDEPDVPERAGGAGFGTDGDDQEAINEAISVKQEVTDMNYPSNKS
The experiment is described as follows: Mass spectrometry based assay to identify modulators of SIRT1 activity (deacetylation of p53-based acetylated peptide substrate). The format is biochemical. Conditions: SIRT1 activation; for Emax: 25 min, read-out: % FOLD ACT. (percent maximum fold activation). From the text: A mass spectrometry based assay was used to identify modulators of SIRT1 activity. The mass spectrometry based assay utilizes a peptide having 20 amino acid residues as follows: Ac-EE-K(biotin)-GQSTSSHSK(Ac)NleSTEG-K(5TMR)-EE-NH2 (SEQ ID NO: 1) wherein K(Ac) is an acetylated lysine residue and Nle is a norleucine. The peptide is labeled with the fluorophore 5TMR (excitation 540 nm/emission 580 nm) at the C-terminus. The sequence of the peptide substrate is based on p53 with several modifications. In addition, the methionine residue naturally present in the sequence was replaced with the norleucine because the methionine may be susceptible to oxidation during synthesis and purification.
The mass spectrometry assay is conducted as follows: […] peptide substrate and 120 μM βNAD^+ is incubated with 10 nM SIRT1 for 25 minutes at 25° C. in a reaction buffer (50 mM Tris-acetate pH 8, 137 mM NaCl, 2.7 mM KCl, 1 mM MgCl2, 5 mM DTT, 0.05% BSA). Test compounds may be added to the reaction as described above. The SirT1 gene is cloned into a T7-promoter containing vector and transformed into BL21(DE3). After the 25 minute incubation with SIRT1, 10 μL of 10% formic acid is added to stop the reaction. Reactions are sealed and frozen for later mass spec analysis. Determination of the mass of the substrate peptide allows for precise determination of the degree of acetylation (i.e. starting material) as compared to deacetylated peptide (product).
A control for inhibition of sirtuin activity is conducted by adding 1 μL of 500 mM nicotinamide as a negative control at the start of the reaction (e.g., permits determination of maximum sirtuin inhibition). A control for activation of sirtuin activity is conducted using 10 nM of sirtuin protein, with 1 μL of DMSO in place of compound, to determine the amount of deacetylation of the substrate at a given timepoint within the linear range of the assay. This timepoint is the same as that used for test compounds and, within the linear range, the endpoint represents a change in velocity.
For the above assay, SIRT1 protein was expressed and purified as follows. The SirT1 gene was cloned into a T7-promoter containing vector and transformed into BL21(DE3). The protein was expressed by induction with 1 mM IPTG as an N-terminal His-tag fusion protein at 18° C. overnight and harvested at 30,000×g. Cells were lysed with lysozyme in lysis buffer (50 mM Tris-HCl, 2 mM Tris[2-carboxyethyl]phosphine (TCEP), 10 μM ZnCl2, 200 mM NaCl) and further treated with sonication for 10 min for complete lysis. The protein was purified over a Ni-NTA column (Amersham) and fractions containing pure protein were pooled, concentrated and run over a sizing column (Sephadex S200 26/60 global). The peak containing soluble protein was collected and run on an Ion-exchange column (MonoQ). Gradient elution (200 mM-500 mM NaCl) yielded pure protein. This protein was concentrated and dialyzed against dialysis buffer (20 mM Tris-HCl, 2 mM TCEP) overnight. The protein was aliquoted and frozen at −80° C. until further use.

In the case of `O=C(Nc1nccs1)N1CCOc2ccc(-c3cccc(C(F)(F)F)c3)nc21` [Compound 500, N-(thiazol-2-yl)-6-(3-(trifluoromethyl)phenyl)-2H-pyrido[3,2-b][1,4]oxazine-4(3H)-carboxamide], the Emax is over 200% and the EC1.5 result is reported as “A (EC1.5<1.0 μM)”. The matching figures for `Cc1cnc(CNC(=O)N2CCOc3ccc(-c4cccc(C(F)(F)F)c4)nc32)cn1` [Compound 504]: at most 200% and “C (EC1.5>25 μM)”. Regarding `O=C(Nc1ncc(CN2CCCC2)s1)N1CCOc2ccc(-c3cccc(C(F)(F)F)c3)nc21` [Compound 505, N-(5-(pyrrolidin-1-ylmethyl)thiazol-2-yl)-6-(3-(trifluoromethyl)phenyl)-2H-pyrido[3,2-b][1,4]oxazine-4(3H)-carboxamide], the Emax was at most 200% and the EC1.5 entry is on record as “C (EC1.5>25 μM)”. Turning to `O=C(Nc1ccc(CN2CCOCC2)nc1)N1CCOc2ccc(-c3cccc(C(F)(F)F)c3)nc21` [Compound 507, N-(6-(morpholinomethyl)pyridin-3-yl)-6-(3-(trifluoromethyl)phenyl)-2H-pyrido[3,2-b][1,4]oxazine-4(3H)-carboxamide], the Emax is over 200% and the EC1.5 result is “A (EC1.5<1.0 μM)”. The matching figures for `Cc1noc(NC(=O)N2CCOc3ccc(-c4cccc(C(F)(F)F)c4)nc32)c1C` [Compound 509]: over 200% and “B (EC1.5 1-25 μM)”. The matching figures for `O=C(Nc1cccc(N2CCC2)n1)N1CCOc2ccc(-c3cccc(C(F)(F)F)c3)nc21` [Compound 512, N-(6-(azetidin-1-yl)pyridin-2-yl)-6-(3-(trifluoromethyl)phenyl)-2H-pyrido[3,2-b][1,4]oxazine-4(3H)-carboxamide]: over 200% and “B (EC1.5 1-25 μM)”. As to `O=C(Nc1ccncn1)N1CCOc2ccc(-c3cccc(F)c3)nc21` [Compound 514], the Emax was over 200% and the EC1.5 result is “A (EC1.5<1.0 μM)”.

Turning to `COc1cccc(-c2ccc3c(n2)N(C(=O)Nc2ccncn2)CCO3)c1` [Compound 515], the Emax is over 200% and the EC1.5 entry was “B (EC1.5 1-25 μM)”.

Turning to `O=C(Nc1ccncn1)N1CCOc2ccc(-c3cccnc3)nc21` [Compound 516], the Emax is at most 200% and the EC1.5 entry is “C (EC1.5>25 μM)”. The matching figures for `Cc1cccc(-c2ccc3c(n2)N(C(=O)Nc2ccncn2)CCO3)c1` [Compound 517]: over 200% and “A (EC1.5<1.0 μM)”. The matching figures for `O=C(c1ccnc(OCC(O)CO)c1)N1CCOc2ccc(-c3cccc(C(F)(F)F)c3)nc21` (centres unmarked) [Compound 518, (2-(2,3-dihydroxypropoxy)pyridin-4-yl)(6-(3-(trifluoromethyl)phenyl)-2H-pyrido[3,2-b][1,4]oxazin-4(3H)-yl)methanone]: at most 200% and “B (EC1.5 1-25 μM)”. The matching figures for `CN1C(=O)CN(C(=O)Nc2nccs2)c2nc(-c3cccc(C(F)(F)F)c3)ccc21` [Compound 520, 1-methyl-2-oxo-N-(thiazol-2-yl)-6-(3-(trifluoromethyl)phenyl)-2,3-dihydropyrido[2,3-b]pyrazine-4(1H)-carboxamide]: at most 200% and “B (EC1.5 1-25 μM)”. Turning to `Cc1csc(NC(=O)N2CC(=O)N(C)c3ccc(-c4cccc(C(F)(F)F)c4)nc32)n1` [Compound 521], the Emax is at most 200% and the EC1.5 entry is recorded as “B (EC1.5 1-25 μM)”. For the compound `CN1C(=O)CN(C(=O)NC2CCOC2=O)c2nc(-c3cccc(C(F)(F)F)c3)ccc21` (centres unmarked) [Compound 522], the Emax was at most 200% and the EC1.5 entry is reported as “C (EC1.5>25 μM)”. Consider `CN1C(=O)CN(C(=O)Nc2ncco2)c2nc(-c3cccc(C(F)(F)F)c3)ccc21` [Compound 523], for which the Emax is at most 200% and the EC1.5 entry is listed as “C (EC1.5>25 μM)”. The matching figures for `CN1C(=O)CN(C(=O)Nc2ncn[nH]2)c2nc(-c3cccc(C(F)(F)F)c3)ccc21` [Compound 524]: at most 200% and “C (EC1.5>25 μM)”.

As for `CN1C(=O)CN(C(=O)Nc2ccncc2)c2nc(-c3cccc(C(F)(F)F)c3)ccc21` [Compound 525], the Emax is over 200% and the EC1.5 result is listed as “B (EC1.5 1-25 μM)”. The matching figures for `CN1C(=O)CN(C(=O)Nc2ccncn2)c2nc(-c3cccc(C(F)(F)F)c3)ccc21` [Compound 526]: over 200% and “B (EC1.5 1-25 μM)”. The matching figures for `CN1C(=O)CN(C(=O)Nc2cncnc2)c2nc(-c3cccc(C(F)(F)F)c3)ccc21` [Compound 527]: at most 200% and “B (EC1.5 1-25 μM)”.

Take `CN1C(=O)CN(C(=O)Nc2cccnn2)c2nc(-c3cccc(C(F)(F)F)c3)ccc21` [Compound 528]: the Emax was at most 200% and the EC1.5 result is “C (EC1.5>25 μM)”. With `CN1CCN(C(=O)Nc2nccs2)c2nc(-c3cccc(C(F)(F)F)c3)ccc21` [Compound 529, 1-methyl-N-(thiazol-2-yl)-6-(3-(trifluoromethyl)phenyl)-2,3-dihydropyrido[2,3-b]pyrazine-4(1H)-carboxamide], the Emax was over 200%. Consider `Cc1cnc(NC(=O)N2CCN(C)c3ccc(-c4cccc(C(F)(F)F)c4)nc32)s1` [Compound 530], for which the Emax was at most 200% and the EC1.5 result is recorded as “B (EC1.5 1-25 μM)”. The matching figures for `CN1CCN(C(=O)Nc2cncnc2)c2nc(-c3cccc(C(F)(F)F)c3)ccc21` [Compound 536]: over 200% and “A (EC1.5<1.0 μM)”. The matching figures for `CN1CCN(C(=O)NC2CCOC2=O)c2nc(-c3cccc(C(F)(F)F)c3)ccc21` (centres unmarked) [Compound 540]: at most 200% and “C (EC1.5>25 μM)”. With `O=C(Nc1ccncc1)N1CCOc2ccc(-c3cccc(Cl)c3)nc21` [Compound 541, 6-(3-chlorophenyl)-N-(pyridin-4-yl)-2H-pyrido[3,2-b][1,4]oxazine-4(3H)-carboxamide], the Emax is over 200% and the EC1.5 entry is recorded as “A (EC1.5<1.0 μM)”. The matching figures for `O=C(Nc1ccncc1)N1CCOc2ccc(-c3cccc(F)c3)nc21` [Compound 542]: over 200% and “B (EC1.5 1-25 μM)”. The matching figures for `O=C(Nc1ccncc1)N1CCOc2ccc(-c3ccccc3F)nc21` [Compound 544]: over 200% and “B (EC1.5 1-25 μM)”.

Take `O=C(Nc1ccncc1)N1CCOc2ccc(-c3ccccc3C(F)(F)F)nc21` [Compound 546]: the Emax is over 200% and the EC1.5 entry was “B (EC1.5 1-25 μM)”. For `O=C(Nc1cncc(F)c1)N1CCOc2ccc(-c3cccc(C(F)(F)F)c3)nc21` [Compound 547], the Emax was over 200% and the EC1.5 entry is “A (EC1.5<1.0 μM)”.

`O=C(Nc1ccncc1)N1CCCOc2ccc(-c3cccc(F)c3)nc21` [Compound 550]: the Emax is over 200% and the EC1.5 entry is “B (EC1.5 1-25 μM)”.
